Measured values as given in US12144864B2, “Tubulysins and protein-tubulysin conjugates” (Regeneron Pharmaceuticals, Inc., priority 2018, dated 2024).
Where two headings read alike, the source gives them in different places.

T1: STEAP2 endogenously expressed on C4-2 cells (human, UniProt Q8NFT2 1-490)
T1 sequence (looked up): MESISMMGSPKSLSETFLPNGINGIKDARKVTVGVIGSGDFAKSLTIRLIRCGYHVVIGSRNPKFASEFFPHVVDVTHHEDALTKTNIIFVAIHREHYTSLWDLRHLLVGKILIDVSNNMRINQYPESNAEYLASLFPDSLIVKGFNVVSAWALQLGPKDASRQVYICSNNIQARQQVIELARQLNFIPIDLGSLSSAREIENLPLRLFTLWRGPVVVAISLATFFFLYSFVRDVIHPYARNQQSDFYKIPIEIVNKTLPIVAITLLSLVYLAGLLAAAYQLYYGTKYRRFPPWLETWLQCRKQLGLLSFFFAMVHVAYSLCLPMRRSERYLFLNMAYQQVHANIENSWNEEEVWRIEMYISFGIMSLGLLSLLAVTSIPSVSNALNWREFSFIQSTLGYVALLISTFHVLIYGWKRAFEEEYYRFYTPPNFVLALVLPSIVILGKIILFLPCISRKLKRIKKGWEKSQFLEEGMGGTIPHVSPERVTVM

B1: Anti-STEAP2 N297Q Ab-LP3 (antibody, V domains shown)
VH: QVQLVESGGGVVQPGRSLRLSCVASGFTISSYGMNWVRQAPGKGLEWVAVISYDGGNKYSVDSVKGRFTISRDNSKNTLYLQMNSLRAEDSAVYYCARGRYFDLWGRGTLVTVSS
VL: DIQMTQSPSTLSASVGDRVTITCRASQSISSWLAWYQQKPGRAPNLLISKASSLKSGVPSRFSGSGSGTEFTLTVSSLQPDDFATYYCQQYYSYSYTFGQGTKLEIK
modifications: N297Q (EU numbering) in the heavy chain constant region; linker-payload LP3 (payload IVd) clicked to azido-PEG3-amine that transglutaminase put on heavy chain glutamines; DAR 3.8 (Table 7)

Assays:
HL60/MX2 cells = experiment: Cytotoxicity in panel of MDR cell lines, HL60/MX2 (72 h and 144 h); format: cell-based, human; details: for IC50: Homo sapiens
Outline: (§1)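 Cells were seeded at 1000 per well and grown overnight, then exposed to 1:3 serially diluted payloads for 72 h and 144 h. CellTiter-Glo reagent was added for 10 min at room temperature, and luminescence was read. IC50 values came from a four-parameter logistic fit.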

HCT15/PRLR cells = experiment: Cytotoxicity of anti-PRLR tubulysin ADCs and payloads in HCT15/PRLR cells with or without Verapamil; format: cell-based, human; details: for IC50: Homo sapiens, HCT-15; for % kill on HCT15/PRLR w/ Verapamil / % kill on HCT15/PRLR w/o Verapamil: at maximum concentration tested
Procedure: (§2) To test the ability of the disclosed tubulysin payloads to kill human cell lines, an in vitro cytotoxicity assay was performed. In vitro cytotoxicity of the disclosed payloads, as well as reference compounds, were evaluated using the CellTiter-Glo Assay Kit (Promega, Cat #G7573), in which the quantity of ATP present is used to determine the number of viable cells in culture. For the assay, C4-2, HEK293, or T47D cells were seeded at 4000 cells/well on Nunclon white 96-well plates in complete growth medium (DME high glucose:Ham's F12 at 4:1, 10% FBS, 100 units/ml Penicillin, 100 ug/ml streptomycin, 53 ug/ml glutatmine, 10 ug/ml insulin, 220 ng/ml biotin, 12.5 pg/ml T3, 12.5 ug/ml Adenine, 4 ug/ml transferrin for C42 cells; DME high glucose, 10% FBS, 100 units/ml Penicillin, 100 ug/ml streptomycin, 53 ug/ml glutatmine for HEK293; RPMI, 10% FBS, 100 units/ml Penicillin, 100 ug/ml streptomycin, 53 ug/ml glutatmine, 10 ug/ml insulin, 10 mM HEPEs, 200 nM Sodium Pyruvate for T47D cells) and grown overnight at 37° C. in 5% CO2. For cell viability curves, 1:3 serially diluted payloads were added to the cells at final concentrations ranging from 100 nM to […], including a no treatment control group, and were then incubated for 5 days. After the 5-day incubation, cells were incubated at room temperature with 100 μL of CellTiter-Glo reagents for 10 minutes. Relative luminescence units (RLU) were determined on a Victor plate reader (PerkinElmer). The IC50 values were determined from a four-parameter logistic equation over a 10-point response curve (GraphPad Prism). All IC50 values are expressed in molar (M) concentration. The percent cell killing (% kill) at the maximum concentration tested was estimated from the following formula (100−% viable cells). Averages±standard deviation (SD) are included where replicate experiments were performed.
Bioassays were developed to assess the efficacy of an anti-PRLR antibody conjugated with the disclosed tubulysin payloads and reference payloads. It was developed to assess the activity of tubulysin payloads after internalization of an anti-PRLR-tubulysin ADC into cells, release of the payload, and subsequent cytotoxicity. For this assay, a HCT15 line was engineered to express human full length PRLR (accession #NP_000940.1). The resulting stable cell line is referred to herein as HCT15/PRLR. In vitro cytotoxicity of the disclosed payloads, reference compounds, and tested ADCs were evaluated similarly as described in this example using HCT15/PRLR cells with or without […] of Verapamil diluted in normal culture medium. The compounds were tested at concentrations starting at 100 nM with 3-fold serial dilution. All IC50 values are expressed in nM concentration and the percent cell killing (% kill) at the maximum concentration tested was estimated from the following formula (100−% viable cells).

C4-2 cells [1] = experiment: Cell-based killing assay of payloads (CellTiter-Glo), C4-2 cells; parameters: species or system human; details: 5-day incubation; for IC50: Homo sapiens, C4-2, 120 h, average ± SD where replicates; for C4-2 % Kill: at maximum concentration tested (100 − % viable cells)
Outline: (§3)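 Cells plated at 4000/well in line-specific complete medium, grown overnight, then exposed to 1:3 serial dilutions of payload (100 nM to […]) for 5 days. ATP-based CellTiter-Glo luminescence read; IC50 from four-parameter logistic 10-point fit, and % kill at top concentration as 100 − % viable.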

HCT-15 cells = experiment: Cytotoxicity in panel of MDR cell lines, HCT-15 (72 h and 144 h); format: cell-based, human; details: for IC50: Homo sapiens
Outline: as §1

H69AR cells = experiment: Cytotoxicity in panel of MDR cell lines, H69AR (72 h and 144 h); format: cell-based, human; details: for IC50: Homo sapiens
Outline: as §1

MES-SA/MX2 cells = experiment: Cytotoxicity in panel of MDR cell lines, MES-SA/MX2 (72 h and 144 h); format: cell-based, human; details: for IC50: Homo sapiens
Outline: as §1

C4-2 cells [2] = experiment: Cytotoxicity of anti-STEAP2 ADCs, payloads and reference compounds in C4-2 cells; format: cell-based, human; details: for IC50: Homo sapiens, top concentration 100 nM, 3-fold serial dilution; for % kill: at maximum concentration tested
Procedure: as §2
To further test the ability of the disclosed tubulysin payloads, reference compounds, and antibody drug conjugates using these payloads, a cytotoxicity assay was performed using C4-2 cells as described in this example (see above). For these studies, anti-STEAP2 antibodies were conjugated to select tubulysins payloads, and the compounds were tested at concentrations starting at 100 nM with 3-fold serial dilution. All IC50 values are expressed in nM concentration and the percent cell killing at the maximum concentration tested was estimated from the following formula (100−% viable cells).

HEK293 cells = experiment: Cell-based killing assay of payloads (CellTiter-Glo), HEK293 cells; parameters: species or system human; details: 5-day incubation; for IC50: Homo sapiens, HEK293, 120 h; for HEK293 % Kill: at maximum concentration tested
Outline: as §3

HCT15 cells = experiment: cells; format: cell-based, human; details: HCT15 cells; for HCT-15 + verapamil % Kill / HCT-15 % Kill: maximum % cell killing
Outline: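 HCT15 colorectal carcinoma cells, 1000 per well in RPMI/10% FBS, with or without 5 ug/mL verapamil, exposed to 1:3 serially diluted payloads for 5 days at 37 °C. Viability measured by CellTiter-Glo ATP luminescence; IC50 from four-parameter logistic fit of a 10-point curve, % kill at top concentration.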

T47D cells = experiment: Cell-based killing assay of payloads (CellTiter-Glo), T47D cells; parameters: species or system human; details: 5-day incubation; for IC50: Homo sapiens, T47D, 120 h; for T47D % Kill: at maximum concentration tested
Outline: as §3

[3] = molecular target: T1, STEAP2 endogenously expressed on C4-2 …; experiment: cell-based or functional assay
[4] = 72 h incubation, read-out: HL60/MX2 IC50 72 h
[5] = 144 h incubation, read-out: HL60/MX2 IC50 144 h
[6] = with Verapamil, read-out: IC50 (nM) on HCT15/PRLR w/ Verapamil
[7] = without Verapamil, read-out: IC50 (nM) on HCT15/PRLR w/o Verapamil
[8] = 72 h incubation, read-out: HCT-15 IC50 72 h
[9] = 144 h incubation, read-out: HCT-15 IC50 144 h
[10] = 72 h incubation, read-out: H69AR IC50 72 h
[11] = 144 h incubation, read-out: H69AR IC50 144 h
[12] = 72 h incubation, read-out: MES-SA/MX2 IC50 72 h
[13] = 144 h incubation, read-out: MES-SA/MX2 IC50 144 h
[14] = with 5 ug/mL Verapamil, read-out: HCT-15 + verapamil IC50
[15] = Homo sapiens, HCT-15, without Verapamil, read-out: HCT-15 IC50

Molecule | HL60/MX2 % Kill 72 h (HL60/MX2 cells; 72 h incubation) | HL60/MX2 % Kill 144 h (HL60/MX2 cells; 144 h incubation) | IC50 (HL60/MX2 cells; [4]) | IC50 (HL60/MX2 cells; [5]) | IC50 (HCT15/PRLR cells; [6]) | IC50 (HCT15/PRLR cells; [7]) | % kill on HCT15/PRLR w/ Verapamil (HCT15/PRLR cells; with Verapamil) | % kill on HCT15/PRLR w/o Verapamil (HCT15/PRLR cells; without Verapamil) | IC50 (C4-2 cells [1]) | C4-2 % Kill (C4-2 cells [1]) | HCT-15 % Kill 72 h (HCT-15 cells; 72 h incubation) | HCT-15 % Kill 144 h (HCT-15 cells; 144 h incubation) | IC50 (HCT-15 cells; [8]) | IC50 (HCT-15 cells; [9]) | H69AR % Kill 72 h (H69AR cells; 72 h incubation) | H69AR % Kill 144 h (H69AR cells; 144 h incubation) | IC50 (H69AR cells; [10]) | IC50 (H69AR cells; [11]) | MES-SA/MX2 % Kill 72 h (MES-SA/MX2 cells; 72 h incubation) | MES-SA/MX2 % Kill 144 h (MES-SA/MX2 cells; 144 h incubation) | other results
C#CCCCCN(C(=O)[C@@H](NC(=O)[C@H]1CCCCN1C)[C@@H](C)CC)[C@H](C[C@@H](OC(C)=O)c1nc(C(=O)N[C@@H](Cc2ccc(N)cc2)CC(C)(C)C(=O)O)cs1)C(C)C [IVd, (4S)-4-({2-[(1R,3R)-1-(Acetyloxy)-3-[(2S,3S)—N-(hex-5-yn-1-yl)-3-methyl-2-{[(2R)-1-methylpiperidin-2-yl]formamido}pentanamido]-4-methylpentyl]-1,3-thiazol-4-yl}formamido)-5-(4-aminophenyl)-2,2-dimethylpentanoic acid] | 98.6% | 99.9% | < 0.015 nM | < 0.015 nM | 0.015 nM | 0.037 nM | 99% | 99% | 0.0164 nM | 93.7 ± 1.8% | 97.6% | 99.7% | 0.00888 nM | 0.0295 nM | 96.9% | 99.5% | 0.0564 nM | 0.133 nM | 99.5% | 100% | IC50 (MES-SA/MX2 cells; [12]): 0.0541 nM; IC50 (MES-SA/MX2 cells; [13]): 0.13 nM; IC50 (C4-2 cells [2]): 0.022 nM; % kill (C4-2 cells [2]): 99%; IC50 (HEK293 cells): 0.0572 nM; HEK293 % Kill (HEK293 cells): 85.4%; HCT-15 + verapamil % Kill (HCT15 cells; with 5 ug/mL Verapamil): 97.7 ± 1.8%; IC50 (HCT15 cells; [14]): 0.0407 nM; HCT-15 % Kill (HCT15 cells; without Verapamil): 98.2 ± 0.5%; IC50 (HCT15 cells; [15]): 0.057 nM; IC50 (T47D cells): 0.035 nM; T47D % Kill (T47D cells): 84.5%
C#CCCCON(C(=O)[C@@H](NC(=O)[C@H]1CCCCN1C)[C@@H](C)CC)[C@H](C[C@@H](OC(C)=O)c1nc(C(=O)N[C@@H](Cc2ccc(N)cc2)CC(C)(C)C(=O)O)cs1)C(C)C [Ve, (4S)-4-({2-[(1R,3R)-1-(Acetyloxy)-4-methyl-3-[(2S,3S)-3-methyl-2-{[(2R)-1-methylpiperidin-2-yl]formamido}-N-(pent-4-yn-1-yloxy)pentanamido]pentyl]-1,3-thiazol-4-yl}formamido)-5-(4-aminophenyl)-2,2-dimethylpentanoic acid] | 98.3% | 100% | < 0.015 nM | < 0.015 nM | 0.033 nM | 0.203 nM | 99% | 99% | < 0.047 nM | 92.6% | 97.5% | 99.7% | 0.0922 nM | 0.158 nM | 96.6% | 99.5% | 0.331 nM | 0.559 nM | 98.9% | 100% | IC50 (MES-SA/MX2 cells; [12]): 0.52 nM; IC50 (MES-SA/MX2 cells; [13]): 0.734 nM; IC50 (C4-2 cells [2]): 0.063 nM; % kill (C4-2 cells [2]): 99%; IC50 (HEK293 cells): 0.103 nM; HEK293 % Kill (HEK293 cells): 88.5%; HCT-15 + verapamil % Kill (HCT15 cells; with 5 ug/mL Verapamil): 98.2 ± 1.2%; IC50 (HCT15 cells; [14]): 0.0654 nM; HCT-15 % Kill (HCT15 cells; without Verapamil): 98.6 ± 0.7%; IC50 (HCT15 cells; [15]): 0.273 nM; IC50 (T47D cells): 0.0731 nM; T47D % Kill (T47D cells): 69.8%
B1 | – | – | – | – | – | – | – | – | – | – | – | – | – | – | – | – | – | – | – | – | % kill, C4-2 cells [3]: 99%; IC50 (nM), cytotoxicity in C4-2 cells (CellTiter-Glo) [3]: 0.097 nM
